Results from patent US5854029A, “Method for preparing antihypertensive agent” (Calpis Co., Ltd., priority 1996, dated 1998).
Peptide text beside a SMILES is read from it.

Legend:
[1] = system: WKY rats showing normal blood pressure; experiment: One-month continuous oral administration to WKY rats (safety); type: in vivo, rat; settings: 10 mg/kg body weight/day continuously for one month
Excerpt: Foods fermented with Lactobacillus bacteria have been eaten by human beings for a long time, and it is therefore assumed that Tyr-Pro contained in the antihypertensive agent of the present invention has no problem in safety.

[2] = target: Angiotensin converting enzyme (ACE) (Homo sapiens, UniProt P12821); settings: J. Dairy Sci. 78:777-783; cited from earlier work
Angiotensin converting enzyme (ACE), sequence (P12821 30-1306, species assumed): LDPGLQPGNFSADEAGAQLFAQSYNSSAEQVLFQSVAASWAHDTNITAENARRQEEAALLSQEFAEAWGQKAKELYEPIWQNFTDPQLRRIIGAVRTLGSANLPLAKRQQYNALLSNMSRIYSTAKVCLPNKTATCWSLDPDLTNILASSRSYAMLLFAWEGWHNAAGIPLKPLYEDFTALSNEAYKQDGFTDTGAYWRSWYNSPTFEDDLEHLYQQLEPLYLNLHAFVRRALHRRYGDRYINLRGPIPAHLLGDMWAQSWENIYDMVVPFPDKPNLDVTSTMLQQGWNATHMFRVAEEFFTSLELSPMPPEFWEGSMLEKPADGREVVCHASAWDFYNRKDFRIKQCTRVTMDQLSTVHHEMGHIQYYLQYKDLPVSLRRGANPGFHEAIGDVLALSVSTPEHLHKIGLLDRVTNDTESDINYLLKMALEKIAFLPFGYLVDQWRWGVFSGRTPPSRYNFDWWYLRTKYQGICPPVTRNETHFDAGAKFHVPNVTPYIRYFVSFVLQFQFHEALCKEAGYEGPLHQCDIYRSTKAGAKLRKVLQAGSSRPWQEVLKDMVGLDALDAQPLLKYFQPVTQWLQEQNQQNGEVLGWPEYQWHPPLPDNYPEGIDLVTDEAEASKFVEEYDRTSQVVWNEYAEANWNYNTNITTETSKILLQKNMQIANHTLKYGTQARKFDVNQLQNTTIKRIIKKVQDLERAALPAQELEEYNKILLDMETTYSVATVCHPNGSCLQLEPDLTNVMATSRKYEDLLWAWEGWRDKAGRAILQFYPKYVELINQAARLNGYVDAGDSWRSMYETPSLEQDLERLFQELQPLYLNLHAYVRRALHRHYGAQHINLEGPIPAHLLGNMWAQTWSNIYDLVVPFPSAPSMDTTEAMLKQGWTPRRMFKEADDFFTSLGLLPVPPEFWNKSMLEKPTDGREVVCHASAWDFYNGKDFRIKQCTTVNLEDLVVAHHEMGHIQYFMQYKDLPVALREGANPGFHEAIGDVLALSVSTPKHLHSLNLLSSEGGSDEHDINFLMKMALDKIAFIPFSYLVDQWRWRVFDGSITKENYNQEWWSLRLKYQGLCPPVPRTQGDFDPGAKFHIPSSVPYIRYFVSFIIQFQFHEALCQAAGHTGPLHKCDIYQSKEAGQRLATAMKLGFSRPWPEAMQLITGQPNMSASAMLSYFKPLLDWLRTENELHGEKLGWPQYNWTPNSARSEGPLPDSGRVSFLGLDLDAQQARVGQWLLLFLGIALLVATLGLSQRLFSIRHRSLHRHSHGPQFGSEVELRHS

[3] = system: spontaneously hypertensive rats (SHR); settings: J. Dairy Sci. 78:1253-1257; cited from earlier work

With `N[C@@H](Cc1ccc(O)cc1)C(=O)N1CCC[C@H]1C(=O)O` [Tyr-Pro] (H-Tyr-Pro-OH) the “Abnormality in behavior, appearance, blood pressure and autopsy” value [1] was “no abnormality was found”.

For Val-Pro-Pro, the “ACE inhibiting activity (result in words)” value [2] is given as “strong ACE inhibiting activity” and the “Antihypertensive effect in SHR (result in words)” value [3] is given as “strong antihypertensive effect”.

In the case of Ile-Pro-Pro, the “ACE inhibiting activity (result in words)” value [2] is given as “strong ACE inhibiting activity” and the “Antihypertensive effect in SHR (result in words)” value [3] is given as “strong antihypertensive effect”.
